Test results from ChEMBL document CHEMBL5724914, “Linking interpersonal differences in gut microbiota composition and drug biotransformation activity” (2024).

What was measured:
[1] = human gut metagenome, 24 h, 2 µM
[2] = human gut metagenome, 24 h, 2 µM; remark: listed apart in the source
[3] = (§1) The drug is tested on Z-004 corresponding to metagenome with ENA study accession number: PRJEB37062 and ENA sample accession number: ERS12561804 for biotransformation under anaerobic condition. The drug concentrations were measured over 9 timepoints collected between 0 and 24 hours of incubation by liquid-chromatography-coupled mass spectrometry (LC–MS); conditions: 2 µM
[4] = human gut metagenome, 24 h, 2 µM; remark: listed apart in the source
[5] = human gut metagenome, 24 h, 2 µM; remark: listed apart in the source
[6] = human gut metagenome, 24 h, 2 µM; remark: listed apart in the source
[7] = human gut metagenome, 24 h, 2 µM; remark: listed apart in the source
[8] = (§2) The drug is tested on WLS-220 corresponding to human gut metagenome with ENA study accession number: PRJEB37062 and ENA sample accession number: ERS12561769 for biotransformation under anaerobic condition. The drug concentrations were measured over 9 timepoints collected between 0 and 24 hours of incubation by liquid-chromatography-coupled mass spectrometry (LC–MS); conditions: 2 µM
[9] = human gut metagenome, 24 h, 2 µM; remark: listed apart in the source
[10] = as §2, with “WLS-069” for “WLS-220”, “ERS12561748” for “ERS12561769”; conditions: 2 µM
[11] = human gut metagenome, 24 h, 2 µM; remark: listed apart in the source
[12] = as §2, with “WLS-350” for “WLS-220”, “ERS12561789” for “ERS12561769”; conditions: 2 µM
[13] = as §2, with “WLS-052” for “WLS-220”, “ERS12561747” for “ERS12561769”; conditions: 2 µM
[14] = human gut metagenome, 24 h, 2 µM; remark: listed apart in the source
[15] = human gut metagenome, 24 h, 2 µM; remark: listed apart in the source
[16] = as §2, with “Z-017” for “WLS-220”, “mouse” for “human”, “ERS12561816” for “ERS12561769”; conditions: 2 µM
[17] = as §2, with “Z-022” for “WLS-220”, “mouse” for “human”, “ERS12561821” for “ERS12561769”; conditions: 2 µM
[18] = as §1, with “Z-005” for “Z-004”, “ERS12561805” for “ERS12561804”; conditions: 2 µM
[19] = as §2, with “Z-006” for “WLS-220”, “mouse” for “human”, “ERS12561806” for “ERS12561769”; conditions: 2 µM
Also: call rule not given here.

SMILES | Bacterial Biotransformation [1] | Bacterial Biotransformation [2] | Bacterial Biotransformation [3] | Bacterial Biotransformation [4] | Bacterial Biotransformation [5] | Bacterial Biotransformation [6] | Bacterial Biotransformation [7] | Bacterial Biotransformation [8] | Bacterial Biotransformation [9] | Bacterial Biotransformation [10] | Bacterial Biotransformation [11] | Bacterial Biotransformation [12] | Bacterial Biotransformation [13] | Bacterial Biotransformation [14] | Bacterial Biotransformation [15] | Bacterial Biotransformation [16] | Bacterial Biotransformation [17] | Bacterial Biotransformation [18] | Bacterial Biotransformation [19]
COC(=O)C1=C(C)NC(C)=C(C(=O)OC(C)C)C1c1cccc2nonc12 (centres undefined) [ISRADIPINE] | Compound NOT metabolized | Compound metabolized | Compound metabolized | Compound metabolized | Compound metabolized | Compound metabolized | Compound metabolized | Compound metabolized | Compound metabolized | Compound metabolized | Compound NOT metabolized | Compound metabolized | Compound metabolized | Compound metabolized | Compound metabolized | – | – | – | –
Cc1nc2n(c(=O)c1CCN1CCC(c3noc4cc(F)ccc34)CC1)CCCC2O (centres undefined) [PALIPERIDONE] | Compound metabolized | Compound metabolized | – | Compound metabolized | Compound metabolized | Compound metabolized | Compound metabolized | Compound metabolized | Compound metabolized | Compound metabolized | Compound metabolized | Compound metabolized | Compound metabolized | Compound metabolized | Compound metabolized | Compound NOT metabolized | Compound NOT metabolized | Compound NOT metabolized | –
CCC1(c2ccc(N)cc2)CCC(=O)NC1=O (centres undefined) [AMINOGLUTETHIMIDE] | Compound NOT metabolized | Compound NOT metabolized | Compound NOT metabolized | Compound NOT metabolized | Compound NOT metabolized | Compound NOT metabolized | Compound NOT metabolized | Compound NOT metabolized | Compound NOT metabolized | Compound NOT metabolized | Compound NOT metabolized | Compound NOT metabolized | Compound NOT metabolized | Compound NOT metabolized | Compound NOT metabolized | Compound NOT metabolized | – | Compound NOT metabolized | Compound NOT metabolized
CN1C[C@H](C(=O)N[C@]2(C)O[C@@]3(O)[C@@H]4CCCN4C(=O)[C@H](Cc4ccccc4)N3C2=O)C=C2c3cccc4[nH]cc(c34)C[C@H]21.CN1C[C@H](C(=O)N[C@]2(C)O[C@@]3(O)[C@@H]4CCCN4C(=O)[C@H](Cc4ccccc4)N3C2=O)C=C2c3cccc4[nH]cc(c34)C[C@H]21.O=C(O)C(O)C(O)C(=O)O [ERGOTAMINE TARTRATE] | Compound metabolized | Compound metabolized | – | – | Compound NOT metabolized | Compound metabolized | Compound metabolized | – | Compound metabolized | Compound metabolized | Compound metabolized | Compound metabolized | Compound metabolized | Compound metabolized | Compound NOT metabolized | – | – | Compound NOT metabolized | Compound NOT metabolized
CC(=O)O[C@]1(C(C)=O)CC[C@H]2[C@@H]3C=C(Cl)C4=CC(=O)[C@@H]5C[C@@H]5[C@]4(C)[C@H]3CC[C@@]21C [CYPROTERONE ACETATE] | Compound metabolized | Compound metabolized | – | Compound metabolized | Compound metabolized | Compound metabolized | Compound metabolized | Compound metabolized | Compound metabolized | Compound metabolized | Compound metabolized | Compound metabolized | Compound metabolized | Compound metabolized | Compound metabolized | – | – | Compound metabolized | –
